Reference: US10947242B2, “[1,2,4]triazolo[1,5and#8208;A]pyrimidine compounds as PDE2 inhibitors” (Janssen Pharmaceutica NV, priority 2016, dated 2021)
Where two headings read alike, the source gives them in different places.

Tests used:
[1] = biological target: T1, Human recombinant PDE2A (hPDE2A) (Homo sapiens, UniProt O00408); assay: In vitro assay PDE2A (SPA, 3H-cGMP hydrolysis); format: biochemical; settings: for Emax: read-out: hPDE2A Emax
T1 construct: His tag (inferred from metal chelate purification); made in house; host or cells: Sf9 insect cells (baculovirus)

[2] = biological target: T2, Human recombinant PDE3A (hPDE3A) (Homo sapiens, UniProt Q14432); assay: In vitro assay PDE3A (SPA, 3H-cAMP hydrolysis); format: biochemical; settings: for IC50: hPDE3B pIC50, read-out: pIC50 (converted); for Emax: read-out: hPDE3B Emax, read-out: Emax;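 as to all read-outs here: the method names PDE3A and the table heading PDE3B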
T2 construct: purchased Scottish Biomedical; host or cells: Sf9 insect cells
In short: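 Radiometric SPA measuring [3H]-cAMP hydrolysis (0.4 μM cAMP, 2.4 μCi/ml) over 60 min at room temperature, in Tris pH 7.8 buffer with MgCl2 and EGTA, 1% DMSO. Enzyme: recombinant human brain PDE3A expressed in Sf9 cells, used as partially purified lysate. Counts compared with enzyme-free blanks and vehicle controls.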

[3] = biological target: T3, Rat recombinant PDE10A (rPDE10A2) (Rattus norvegicus, UniProt Q9QYJ6); assay: In vitro assay PDE10A, rat clone (SPA, 3H-cAMP hydrolysis); format: biochemical; settings: for Emax / IC50: rat clone (r); for IC50: read-out: rPDE10A2 pIC50 (converted); for rPDE10A2 pIC50: rat clone, indicated as (r)
T3 construct: His tag (inferred from metal chelate purification); made in house; host or cells: Sf9 insect cells (baculovirus)
T3 sequence (Q9QYJ6 1-794): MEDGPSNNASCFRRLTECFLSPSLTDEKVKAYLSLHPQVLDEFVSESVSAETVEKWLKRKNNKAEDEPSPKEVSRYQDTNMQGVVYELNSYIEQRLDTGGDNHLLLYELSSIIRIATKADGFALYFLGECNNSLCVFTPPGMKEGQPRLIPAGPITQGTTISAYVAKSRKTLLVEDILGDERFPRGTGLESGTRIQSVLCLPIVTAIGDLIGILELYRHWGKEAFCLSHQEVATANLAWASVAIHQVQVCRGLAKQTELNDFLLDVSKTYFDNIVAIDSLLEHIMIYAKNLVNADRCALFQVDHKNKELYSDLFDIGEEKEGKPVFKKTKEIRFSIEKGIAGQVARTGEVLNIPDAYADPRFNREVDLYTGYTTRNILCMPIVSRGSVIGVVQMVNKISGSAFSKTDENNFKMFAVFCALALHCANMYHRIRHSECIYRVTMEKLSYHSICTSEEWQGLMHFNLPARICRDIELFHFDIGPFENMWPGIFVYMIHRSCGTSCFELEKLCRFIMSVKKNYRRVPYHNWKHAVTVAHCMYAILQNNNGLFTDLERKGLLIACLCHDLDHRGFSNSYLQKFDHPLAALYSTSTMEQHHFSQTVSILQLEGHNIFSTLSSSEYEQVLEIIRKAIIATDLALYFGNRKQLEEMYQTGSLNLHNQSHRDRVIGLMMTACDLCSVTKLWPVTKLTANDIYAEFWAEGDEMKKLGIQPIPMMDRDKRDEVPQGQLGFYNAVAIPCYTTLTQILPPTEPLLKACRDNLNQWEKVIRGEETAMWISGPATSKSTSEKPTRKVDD
Experimental: Rat recombinant PDE10A (rPDE10A2) was expressed in Sf9 cells using a recombinant rPDE10A baculovirus construct. Cells were harvested after 48 h of infection and the rPDE10A protein was purified by metal chelate chromatography on Ni-sepharose 6FF. Tested compounds were dissolved and diluted in 100% DMSO to a concentration 100 fold of the final concentration in the assay. Human recombinant PDE10A ([…]) was expressed in Sf9 cells using a recombinant hPDE10A baculovirus that was made and amplified in house. Cells were harvested after 72 h of infection and the hPDE10A protein was purified by metal chelate chromatography on Ni-sepharose. Compound dilutions (0.4 μl) were added in 384 well plates to 20 μl of incubation buffer (50 mM Tris pH 7.8, 8.3 mM MgCl2, 1.7 mM EGTA). 10 μl of rPDE10A or hPDE10A enzyme in incubation buffer was added and the reaction was started by addition of 10 μl substrate to a final concentration of 60 nM cAMP and 0.008 μCi ^3H-cAMP. The reaction was incubated for 60 minutes at room temperature. After incubation, the reaction was stopped with 20 μl of stop solution consisting of 17.8 mg/ml PDE SPA (scintillation proximity assay) beads. After sedimentation of the beads during 30 minutes the radioactivity was measured in a Perkin Elmer Topcount scintillation counter and results were expressed as cpm. For blanc values the enzyme was omitted from the reaction and replaced by incubation buffer. Control values were obtained by addition of a final concentration of 1% DMSO instead of compound. A best fit curve is fitted by a minimum sum of squares method to the plot of % of control value subtracted with blanc value versus compound concentration and the half maximal inhibitory concentration (IC50) value is derived from this curve.

[4] = biological target: T4, Human recombinant PDE10A (hPDE10A) (Homo sapiens, UniProt Q9Y233); assay: In vitro assay PDE10A, human clone (SPA, 3H-cAMP hydrolysis); format: biochemical
T4 construct: His tag (inferred from metal chelate purification); made in house; host or cells: Sf9 insect cells (baculovirus)
In short: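 Hydrolysis of 3H-cAMP (60 nM cAMP, 0.008 μCi tracer) proceeded for 60 min at room temperature, with the product detected by SPA bead scintillation counting. The enzyme was hPDE10A from baculovirus-infected Sf9 cells in Tris pH 7.8 buffer with MgCl2 and EGTA, and compounds were at 1% DMSO final. Blanks lacked enzyme.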

PDE2A = biological target: T5, PDE2A (Rattus norvegicus, UniProt Q01062); assay: PDE2 occupancy by test compounds, ex-vivo autoradiography with [3H]B-17a; format: in vivo, Male Wistar rats
T5 construct: Twenty μm-thick striatal sections were cut; from tissue; host or cells: rat brain, striatal sections
T5 sequence (Q01062 1-928): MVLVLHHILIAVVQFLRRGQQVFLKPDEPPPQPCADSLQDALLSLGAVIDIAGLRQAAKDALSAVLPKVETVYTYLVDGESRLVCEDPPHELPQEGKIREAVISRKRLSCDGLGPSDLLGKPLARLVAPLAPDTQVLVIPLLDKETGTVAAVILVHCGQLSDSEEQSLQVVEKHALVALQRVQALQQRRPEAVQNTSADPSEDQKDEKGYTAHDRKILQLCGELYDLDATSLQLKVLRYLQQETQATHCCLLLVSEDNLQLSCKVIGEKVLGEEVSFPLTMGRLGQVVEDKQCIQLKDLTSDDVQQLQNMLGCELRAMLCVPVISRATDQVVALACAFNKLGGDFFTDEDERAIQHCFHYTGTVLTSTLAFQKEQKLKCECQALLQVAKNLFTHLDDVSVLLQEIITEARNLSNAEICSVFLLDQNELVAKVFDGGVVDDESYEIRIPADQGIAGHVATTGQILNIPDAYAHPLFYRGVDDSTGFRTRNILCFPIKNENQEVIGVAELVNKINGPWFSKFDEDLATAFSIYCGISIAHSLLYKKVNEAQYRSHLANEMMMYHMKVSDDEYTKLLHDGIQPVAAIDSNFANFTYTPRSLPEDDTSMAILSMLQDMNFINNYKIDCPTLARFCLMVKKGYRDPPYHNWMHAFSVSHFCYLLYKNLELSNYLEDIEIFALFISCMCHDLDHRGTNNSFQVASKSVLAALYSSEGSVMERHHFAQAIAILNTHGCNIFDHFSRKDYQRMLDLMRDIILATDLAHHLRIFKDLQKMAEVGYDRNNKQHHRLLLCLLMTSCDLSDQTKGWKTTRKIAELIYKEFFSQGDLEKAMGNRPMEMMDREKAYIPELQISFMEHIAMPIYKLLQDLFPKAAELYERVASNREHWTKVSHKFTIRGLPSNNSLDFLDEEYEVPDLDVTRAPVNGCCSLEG

[5] = human recombinant PDE2A, 10 μM cGMP substrate, read-out: hPDE2A pIC50 (converted)
[6] = read-out: hPDE2A pIC50 (converted)
[7] = human clone (h), default, read-out: hPDE10A2 Emax
[8] = human clone (h), default, read-out: hPDE10A2 pIC50 (converted)
[9] = hPDE2A pIC50, human recombinant PDE2A, 10 μM cGMP substrate
[10] = po, 10 mg/kg, route PO (oral), percentage receptor occupancy, ex-vivo autoradiography, striatum

T4 sequence (Q9Y233 267-1055): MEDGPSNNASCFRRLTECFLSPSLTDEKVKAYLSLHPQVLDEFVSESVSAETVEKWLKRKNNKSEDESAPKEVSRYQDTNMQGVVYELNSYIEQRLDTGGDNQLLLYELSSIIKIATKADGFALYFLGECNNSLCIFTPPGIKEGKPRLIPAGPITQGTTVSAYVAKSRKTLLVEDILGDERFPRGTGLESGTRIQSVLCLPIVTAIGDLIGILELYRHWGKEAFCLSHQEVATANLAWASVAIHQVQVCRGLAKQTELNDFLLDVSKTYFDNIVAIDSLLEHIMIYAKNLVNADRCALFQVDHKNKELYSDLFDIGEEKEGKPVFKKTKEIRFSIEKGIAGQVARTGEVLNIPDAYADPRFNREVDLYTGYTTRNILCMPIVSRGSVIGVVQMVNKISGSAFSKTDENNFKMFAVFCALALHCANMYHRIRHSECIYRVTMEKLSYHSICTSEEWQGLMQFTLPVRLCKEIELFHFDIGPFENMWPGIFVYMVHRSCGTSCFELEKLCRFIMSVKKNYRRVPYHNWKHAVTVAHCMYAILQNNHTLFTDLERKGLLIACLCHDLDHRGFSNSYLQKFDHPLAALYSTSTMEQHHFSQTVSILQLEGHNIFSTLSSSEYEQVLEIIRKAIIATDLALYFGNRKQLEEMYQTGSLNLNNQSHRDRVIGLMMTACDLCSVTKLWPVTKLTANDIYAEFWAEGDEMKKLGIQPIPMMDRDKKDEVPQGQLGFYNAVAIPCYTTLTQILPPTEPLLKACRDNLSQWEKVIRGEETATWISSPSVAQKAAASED
T1 sequence (O00408 whole entry): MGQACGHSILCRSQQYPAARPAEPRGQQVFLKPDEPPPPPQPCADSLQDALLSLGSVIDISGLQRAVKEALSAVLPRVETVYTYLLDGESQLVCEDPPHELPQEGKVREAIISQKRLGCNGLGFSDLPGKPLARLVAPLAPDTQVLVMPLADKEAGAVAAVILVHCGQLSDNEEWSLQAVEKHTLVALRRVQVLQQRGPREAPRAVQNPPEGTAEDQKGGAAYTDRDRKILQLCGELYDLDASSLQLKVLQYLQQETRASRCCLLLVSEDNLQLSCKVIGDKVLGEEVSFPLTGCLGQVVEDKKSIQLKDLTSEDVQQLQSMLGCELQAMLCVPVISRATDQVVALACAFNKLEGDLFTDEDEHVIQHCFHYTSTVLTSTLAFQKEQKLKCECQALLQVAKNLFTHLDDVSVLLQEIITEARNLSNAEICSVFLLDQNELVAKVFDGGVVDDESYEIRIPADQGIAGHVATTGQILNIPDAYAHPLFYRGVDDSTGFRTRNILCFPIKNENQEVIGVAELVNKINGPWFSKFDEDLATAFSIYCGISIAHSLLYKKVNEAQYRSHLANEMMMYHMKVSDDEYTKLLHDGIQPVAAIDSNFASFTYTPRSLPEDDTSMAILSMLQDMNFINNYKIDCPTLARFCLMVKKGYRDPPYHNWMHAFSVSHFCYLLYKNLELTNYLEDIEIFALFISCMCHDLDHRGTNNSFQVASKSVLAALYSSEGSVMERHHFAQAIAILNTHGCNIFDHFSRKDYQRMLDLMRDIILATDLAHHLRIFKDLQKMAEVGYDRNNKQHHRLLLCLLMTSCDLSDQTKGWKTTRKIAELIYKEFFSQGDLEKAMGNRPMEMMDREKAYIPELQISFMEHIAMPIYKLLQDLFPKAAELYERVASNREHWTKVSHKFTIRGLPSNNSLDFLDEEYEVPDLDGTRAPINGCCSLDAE
T2 sequence (Q14432 whole entry): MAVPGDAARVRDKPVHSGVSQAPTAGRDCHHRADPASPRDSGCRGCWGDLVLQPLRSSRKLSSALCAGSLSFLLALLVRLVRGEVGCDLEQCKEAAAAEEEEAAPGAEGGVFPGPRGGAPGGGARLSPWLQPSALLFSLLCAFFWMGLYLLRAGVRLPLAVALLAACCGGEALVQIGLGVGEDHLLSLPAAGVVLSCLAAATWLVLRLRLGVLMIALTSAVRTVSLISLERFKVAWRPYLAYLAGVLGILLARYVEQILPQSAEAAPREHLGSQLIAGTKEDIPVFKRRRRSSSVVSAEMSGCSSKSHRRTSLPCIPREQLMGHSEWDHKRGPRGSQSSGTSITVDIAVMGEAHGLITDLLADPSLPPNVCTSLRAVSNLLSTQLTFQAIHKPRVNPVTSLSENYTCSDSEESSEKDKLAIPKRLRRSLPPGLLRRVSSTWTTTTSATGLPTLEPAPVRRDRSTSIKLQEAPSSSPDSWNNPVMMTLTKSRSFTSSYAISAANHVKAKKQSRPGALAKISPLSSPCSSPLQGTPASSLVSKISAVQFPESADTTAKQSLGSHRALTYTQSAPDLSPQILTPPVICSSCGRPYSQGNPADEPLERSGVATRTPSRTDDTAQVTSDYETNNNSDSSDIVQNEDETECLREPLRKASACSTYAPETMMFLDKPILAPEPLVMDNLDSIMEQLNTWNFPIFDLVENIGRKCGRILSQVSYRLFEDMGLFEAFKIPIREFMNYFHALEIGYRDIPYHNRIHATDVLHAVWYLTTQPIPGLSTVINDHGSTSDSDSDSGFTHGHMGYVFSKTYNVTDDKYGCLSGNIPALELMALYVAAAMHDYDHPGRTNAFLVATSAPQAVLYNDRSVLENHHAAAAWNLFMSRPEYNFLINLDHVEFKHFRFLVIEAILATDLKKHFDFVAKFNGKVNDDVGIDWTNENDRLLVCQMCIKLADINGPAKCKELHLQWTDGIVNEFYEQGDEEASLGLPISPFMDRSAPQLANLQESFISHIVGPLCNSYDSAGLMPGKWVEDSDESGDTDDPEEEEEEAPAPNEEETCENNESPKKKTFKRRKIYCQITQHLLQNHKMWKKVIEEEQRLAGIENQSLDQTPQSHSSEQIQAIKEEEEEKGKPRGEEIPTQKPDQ

SMILES	IC50 [1, 5] [nM]	Emax ([1]; human recombinant PDE2A) [%]	Emax [1] [%]	IC50 [1, 6] [nM]	IC50 [2] [nM]	Emax [2] [%]	Emax [3] [%]	IC50 [3] [nM]	rPDE10A2 pIC50 [3]	melting point [°C]	Emax [4, 7] [%]	IC50 [4, 8] [nM]	Emax ([4]; human clone by default (no (r) mark), read-out: hPDE10A2 or rPDE10A2 Emax) [%]	IC50 ([4]; human clone by default (no (r) mark), read-out: hPDE10A2 or rPDE10A2 pIC50 (converted)) [nM]	ED50 (PDE2A; route PO (oral), drug dose producing 50% receptor occupancy, read-out: PDE Occupancy ED50) [mg/kg]	receptor occupancy at 10 mg/kg (PDE2A; sc, 10 mg/kg, route SC (subcutaneous), percentage receptor occupancy, ex-vivo autoradiography, striatum) [%]	IC50 ([1]; hPDE2A pIC50) [nM]	IC50 [1, 9] [nM]	receptor occupancy at 10 mg/kg (PDE2A; [10]) [%]	PDE2 Occupancy at 10 mg/kg (PDE2A; 10 mg/kg, route PO (oral), percentage receptor occupancy, ex-vivo autoradiography, striatum)
CC1(c2cc(C(F)F)nc3ncnn23)CCCN(C(=O)c2ccc3occc3c2)C1 (stereo not shown) [Compound 201]	646	61	61	646	> 10000	24	-1	3090	5.51 (r)	140.14										
C[C@@H]1CCN(C(=O)c2ccc3occc3c2)C[C@H]1c1cc(C(F)F)nc2ncnn12 [Compound 97]							99	34.7	7.46 (r)		101	53.7								
C[C@@H]1CCN(C(=O)c2ccc3ncsc3c2)C[C@H]1c1cc(C(F)F)nc2ncnn12 [Compound 228]	0.224	100	100	0.224	1200	91				178.21	100	17	100	17	1.5	92				
Cc1cc(C)cc(C(=O)N2CC[C@@H](C)[C@H](c3cc(C(F)F)nc4ncnn34)C2)c1 [Compound 123]			99		1620	87				203.87	99	91.2					1.95	1.95	4	
C[C@@H]1CCN(C(=O)c2ccc(F)c(C(F)F)c2)C[C@H]1c1cc(C(F)F)nc2ncnn12 [Compound 191]	12.9	100	100	12.9	3890	74				162.07	97	224							-18	
Cc1cc(C(=O)N2CC[C@@H](C)[C@H](c3cc(C(F)F)nc4ncnn34)C2)cc(Cl)c1F [Compound 129]			101		1950	85				140.78	99	91.2					2.29	2.29	21	
COc1cc(C(=O)N2CC[C@@H](C)[C@H](c3cc(C(F)F)nc4ncnn34)C2)cc(C(C)C)n1 [Compound 122]	1.86	100	100	1.86	1820	86				160.2	100	74.1							0	
COc1cc(C(=O)N2CC[C@@H](C)[C@H](c3cc(C)nc4ncnn34)C2)cc(Cl)n1 [Compound 22]			100		1510	87				217.82	99	15.8					2.34	2.34	18	30
